Measured values as given in patent US20240238212A1, “LIPID COMPOUNDS AND LIPID NANOPARTICLE COMPOSITIONS” (SUZHOU ABOGEN BIOSCIENCES CO., LTD., priority 2022, published 2024).

How the values were obtained:
[1] = Lipid nanoparticle size and polydispersity by dynamic light scattering; type: physicochemical; conditions: LNP comprising the compound, hEPO mRNA; for Size (nm): cationic lipid/DSPC/cholesterol/PEG-lipid 50:10:38.5:1.5
Experimental: (§1) Briefly, a cationic lipid provided herein, DSPC, cholesterol, and PEG-lipid were solubilized in ethanol at a molar ratio of 50:10:38.5:1.5, and mRNA were diluted in 10 to 50 mM citrate buffer, pH=4. The LNPs were prepared at a total lipid to mRNA weight ratio of approximately 10:1 to 30:1 by mixing the ethanolic lipid solution with the aqueous mRNA solution at a volume ratio of 1:3 using a microfluidic apparatus, total flow rate ranging from 9-30 mL/min. Ethanol were thereby removed and replaced by DPBS using dialysis. Finally, the lipid nanoparticles were filtered through a 0.2 μm sterile filter.
(§2) Lipid nanoparticle size were determined by dynamic light scattering using a Malvern Zetasizer Nano ZS (Malvern UK) using a 173° backscatter detection mode. The encapsulation efficiency of lipid nanoparticles were determined using a Quant-it Ribogreen RNA quantification assay kit (Thermo Fisher Scientific, UK) according to the manufacturer's instructions.

[2] = Encapsulation efficiency of lipid nanoparticles (Quant-it Ribogreen RNA assay); type: physicochemical; conditions: LNP comprising the compound, hEPO mRNA
Experimental: as §1, §2

[3] = system: human erythropoietin (hEPO) mRNA expression; assay: Animal Study 1: hEPO mRNA LNPs i.v. in mice, serum EPO by ELISA; type: in vivo; conditions: female ICR mice, 0.5 mg/kg tail vein injection, blood e.g. 6 hours post administration; relative to MC3 LNP
Experimental: Lipid nanoparticles comprising compounds in the following table encapsulating human erythropoietin (hEPO) mRNA were systemically administered to 6-8 week old female ICR mice (Xipuer-Bikai, Shanghai) at 0.5 mg/kg dose by tail vein injection and mice blood were sampled at specific time points (e.g., 6 hours) post administration. In addition to the aforementioned tested groups, lipid nanoparticles comprising dilinoleylmethyl-4-dimethylaminobutyrate (DLin-MC3-DMA, usually abbreviated to MC3) encapsulating hEPO mRNA were similarly administered at the same dose to age and gender comparative groups of mice as a positive control.
Mice were euthanized by CO2 overdoses after the last sampling time point. Serum were separated from total blood by centrifugation at 5000 g for 10 minutes at 4 T, snap-frozen and stored at −80 T for analysis. ELISA assay were carried out using a commercial kit (DEP00, R&D systems) according to manufacturer's instructions.
Characteristics of tested lipid nanoparticles, including EPO expression levels over MC3 measured from the tested group are listed in the table below.

[4] = Apparent pKa of LNP formulations (TNS fluorescence assay); type: physicochemical; conditions: LNP formulation, TNS assay (Table 2)
Experimental: As reported in literature, the apparent pKa of LNP formulations correlates with the delivery efficiency of LNPs for nucleic acids in vivo. The apparent pKa of each formulation was determined using an assay based on fluorescence of 2-(p-toluidino)-6-napthalene sulfonic acid (TNS). LNP formulations comprising of cationic lipid/DSPC/cholesterol/DMG-PEG (50/10/38.5/1.5 mol %) in PBS were prepared as described above. TNS was prepared as a 300 μM stock solution in distilled water. LNP formulations were diluted to 0.1 mg/mL total lipid in 3 mL of buffered solutions containing 50 mM sodium citrate, 50 mM sodium phosphate, 50 mM sodium borate, and 30 mM sodium chloride where the pH ranged from 3 to 9. An aliquot of the TNS solution was added to give a final concentration of […] and following vortex mixing fluorescence intensity was measured at room temperature in a Molecular Devices Spectramax iD3 spectrometer using excitation and mission wavelengths of 325 nm and 435 nm. A sigmoidal best fit analysis was applied to the fluorescence data and the pKa value was measured as the pH giving rise to half-maximal fluorescent intensity.

SMILES	Polydispersity [1]	Size (nm) [1] [nm]	Encapsulation efficiency [2] [%]	Apparent pKa [4]	EPO expression over MC3 [3]
CCCCCCCC(=O)OCC(CCCCN(CCCCC(COC(=O)CCCCCCC)COC(=O)CCCCCCC)CCCNc1c(N(CC)CC)c(=O)c1=O)COC(=O)CCCCCCC [Compound 31]	0.073	72.36	88.17	6.221	A (≥2)
CCCCCCCCCCCCCCCCCC(=O)OCCCCCCN(CCCCC(COC(=O)CCCCCCC)COC(=O)CCCCCCC)C1CCC(O)CC1 (stereo not shown) [Compound 36]	0.1156	78.92	85.90	6.867	C (≥0.1 and <1)
CCCCCCCC/C=C\CCCCCCCC(=O)OCCCCCCN(CCCCC(COC(=O)CCCCCCC)COC(=O)CCCCCCC)C1CCC(O)CC1 (stereo not shown) [Compound 38]	0.06385	100.3	87.69	6.799	B (≥1 and <2)
CCCCCCCC/C=C\CCCCCCCC(=O)OCCCCCCN(CCCCC(COC(=O)CCCCCCC)COC(=O)CCCCCCC)C1CC(O)C1 (stereo not shown) [Compound 39]	0.002	84.01	89.27	6.801	C (≥0.1 and <1)
CCCCC/C=C\C/C=C\CCCCCCCC(=O)OCCCCCCN(CCCCC(COC(=O)CCCCCCC)COC(=O)CCCCCCC)CCCNc1c(N(C)C)c(=O)c1=O [Compound 42]	0.0478	77.38	95.23	6.657	C (≥0.1 and <1)
CCCCCCCC(=O)OCC(CCCCN(CCCCC(COC(=O)CCCCCCC)COC(=O)CCCCCCC)[C@H]1C[C@@H](O)C1)COC(=O)CCCCCCC [Compound 43]	0.057	64.77	89.21	6.653	A (≥2)
CCCCCCCC(=O)OCC(CCCCN(CCCCC(COC(=O)CCCCCCC)COC(=O)CCCCCCC)[C@@H]1CC[C@H](O)C1)COC(=O)CCCCCCC [Compound 47]	0.039	91.46	89.99	6.767	A (≥2)
CCCCCCCC(=O)OCC(CCCCN(CCCCC(COC(=O)CCCCCCC)COC(=O)CCCCCCC)[C@H]1C=C[C@@H](CO)C1)COC(=O)CCCCCCC [Compound 48]	0.027	92.53	84.12	6.143	A (≥2)
CCCCCCCC(=O)OCC(CCCCN(CCCCC(COC(=O)CCCCCCC)COC(=O)CCCCCCC)C1CC(CO)C1)COC(=O)CCCCCCC (stereo not shown) [Compound 54]	0.109	63.7	94.90	6.679	B (≥1 and <2)
CCCCCCCC(=O)OCC(CCCCN(CCCCC(COC(=O)CCCCCCC)COC(=O)CCCCCCC)[C@H]1CC[C@H](CO)CC1)COC(=O)CCCCCCC [Compound 59]	0.066	168.4	72.86	6.633	A (≥2)
CCCCCCCC(=O)OCC(CCCCN(CCCCC(COC(=O)CCCCCCC)COC(=O)CCCCCCC)C1CC(CO)(CO)C1)COC(=O)CCCCCCC [Compound 61]	0.066	72.95	91.26	7.32	C (≥0.1 and <1)
CCCCCCCCC(CCCCCC)CNC(=O)CCCCCN(CCCCC(COC(=O)CCCCCCC)COC(=O)CCCCCCC)CC1(CO)CCCC1 (stereo not shown) [Compound 62]	0.031	71.06	88.45	5.299	D (<0.1)
CCCCCCCC(=O)OCC(C)(COC(=O)CCCCCCC)COC(=O)CCCCCN(CCO)CCCCCC(=O)OCC(C)(COC(=O)CCCCCCC)COC(=O)CCCCCCC [Compound 64]	0.094	83.57	94.94	6.575	A (≥2)
CCCCCCCC(=O)OCC(COC(=O)CCCCCCC)COC(=O)CCCCCCCN(CCO)CCCCCCCC(=O)OCC(COC(=O)CCCCCCC)COC(=O)CCCCCCC [Compound 65]	0.040	62.56	96.01	6.338	A (≥2)
CCCCCCCC(=O)OCC(COC(=O)CCCCCCC)COC(=O)CCCCCN(CCCO)CCCCCC(=O)OCC(COC(=O)CCCCCCC)COC(=O)CCCCCCC [Compound 66]	0.010	113.3	95.46	6.379	A (≥2)
CCCCCCCC(=O)OCC(COC(=O)CCCCCCC)COC(=O)CCCCCN(CCCCCO)CCCCCC(=O)OCC(COC(=O)CCCCCCC)COC(=O)CCCCCCC [Compound 68]	0.010	100.16	94.91	6.582	A (≥2)

The next lines start with results.

Polydispersity [1]	Size (nm) [1] [nm]	Encapsulation efficiency [2] [%]	Apparent pKa [4]	SMILES	EPO expression over MC3 [3]
0.031	80.75	86.98	6.513	CCCCCCCC(=O)OCC(CCCCCCN(CCCCCO)CCCCCCC(COC(=O)CCCCCCC)COC(=O)CCCCCCC)COC(=O)CCCCCCC [Compound 29]	A (≥2)
0.04761	67.6	89.70	6.34	CCCCCCCC(=O)OCC(CCCCN(CCCCC(COC(=O)CCCCCCC)COC(=O)CCCCCCC)CCCNc1c(N(C)CC)c(=O)c1=O)COC(=O)CCCCCCC [Compound 34]	A (≥2)
0.05652	71.02	89.19	6.138	CCCCCCCC(=O)OCC(CCCCN(CCCCC(COC(=O)CCCCCCC)COC(=O)CCCCCCC)CCCNc1c(N(C)CCC)c(=O)c1=O)COC(=O)CCCCCCC [Compound 35]	A (≥2)
0.005279	93.13	88.34	6.69	CCCCC/C=C\C/C=C\CCCCCCCC(=O)OCCCCCCN(CCCCC(COC(=O)CCCCCCC)COC(=O)CCCCCCC)C1CCC(O)CC1 (stereo not shown) [Compound 37]	A (≥2)
0.159	130.62	90.10	6.297	CCCCCCCCC(CCCCCC)CNC(=O)CCCCCN(CCCCC(COC(=O)CCCCCCC)COC(=O)CCCCCCC)CCC1(O)CCCCC1 (stereo not shown) [Compound 63]	C (≥0.1 and <1)
0.026	87.2	94.95	6.705	CCCCCCCC(=O)OCC(COC(=O)CCCCCCC)COC(=O)CCCCCN(CCCCO)CCCCCC(=O)OCC(COC(=O)CCCCCCC)COC(=O)CCCCCCC [Compound 67]	A (≥2)
0.012	106.71	94.81	6.271	CCCCCCCC(=O)OCC(COC(=O)CCCCCCC)COC(=O)CCCCCN(CCCCCCO)CCCCCC(=O)OCC(COC(=O)CCCCCCC)COC(=O)CCCCCCC [Compound 69]	B (≥1 and <2)
